Measurements from patent publication US20260306514A1, “ORAL PHARMACEUTICAL FORMULATIONS CONTAINING 4-((2-HYDROXY-3-METHOXYBENZYL)AMINO) BENZENESULFONAMIDE DERIVATIVES” (Cadrenal Therapeutics, Inc., priority 2022, published 2026).
≈ marks a conversion by molar mass, not a printed value. Read-outs that look alike come from different tables or passages of the source.

What was measured:
Aqueous solubility = type: physicochemical; conditions: for solubility in water: in words
[1] = Rat PK of Compound 1, IV and oral solution (Table 2); type: in vivo, rats
From the text: The intravenous formulation uses cyclodextrin (CD) to increase solubility. […] The inventors explored a new approach to oral formulation without guidance from the art including lipid solubility screening in various non-aqueous vehicles, self micro-emulsifying systems with oils, surfactants, and co-surfactants, amorphous solid dispersions via hot melt and spray drying, micronization, and in silico screen of supercritical fluid nanoparticle engineering. […] The pharmaceutical acceptable carrier can be a polymer.

[2] = Solubility of Compound 1 in organic solvents relevant to spray drying (Table 3); type: physicochemical; conditions: for solubility: organic solvent or mixture, read-out: Solubility Concentration
Experimental: THF was the most suitable solvent, and could be combined with other solvents such as acetone, ethanol and water to enable dissolution of the drug, polymer and additives in the formulation. Furthermore, given the anticipated dose of the product, maximizing the drug loading in the amorphous dispersion was essential.
Solubility in organic solvents relevant to spray draying were conducted ([…]), showing that THF with EtOH in water was preferred (85/10/5).

[3] = Rat PK of Compound 1, IV and oral suspension (Table 1); parameters: species or system rats; conditions: in vivo; for bioavailability: po, rats
From the text: The intravenous formulation uses cyclodextrin (CD) to increase solubility. However, a drug loading of <10% is not suitable for oral formulation. The inventors explored a new approach to oral formulation without guidance from the art including lipid solubility screening in various non-aqueous vehicles, self micro-emulsifying systems with oils, surfactants, and co-surfactants, amorphous solid dispersions via hot melt and spray drying, micronization, and in silico screen of supercritical fluid nanoparticle engineering. […] The pharmaceutical acceptable carrier can be a polymer.

[4] = Oral bioavailability of Compound 1 suspension in mice; conditions: mouse, in vivo, suspension in 0.5% methylcellulose
From the text: While this vehicle is sufficient for short term efficacy studies, the inventors needed a more robust and clinically relevant formulation for the longer dosing regimens required for mouse efficacy models.

12-LOX = conditions: in words; cited from earlier work

SMILES: COc1cccc(CNc2ccc(S(=O)(=O)Nc3nc4ccccc4s3)cc2)c1O [Compound 1, N-(benzo[d]thiazol-2-yl)-4-((2-hydroxy-3-methoxybenzyl)amino)benzenesulfonamide]
- solubility in water (Aqueous solubility): poor solubility in water
- solubility enhancement (Aqueous solubility; phosphate buffer or simulated intestinal fluid): greatly enhanced
- C0 or Cmax ([1]; IV, 3 mg/Kg, C0 extrapolated to T = 0 h): 63725 ng/mL
- C0 or Cmax ([1]; PO solution, 30 mg/Kg): 6610 ng/mL
- AUC(0-t) ([1]; in vivo, IV, 3 mg/Kg): 50700 ng·h/mL
- half-life ([1]; in vivo, IV, 3 mg/Kg): 2.59 h
- clearance ([1]; in vivo, IV, 3 mg/Kg, read-out: Cl_obs (observed clearance)): 0.986 mL/min/kg
- Vd ([1]; in vivo, IV, 3 mg/Kg, read-out: Vss_obs): 0.101 L/kg
- AUC(0-t) ([1]; in vivo, PO solution, 30 mg/Kg): 15200 ng·h/mL
- half-life ([1]; in vivo, PO solution, 30 mg/Kg): 2.69 h
- bioavailability ([1]; in vivo, po, 30 mg/kg, PO solution, 30 mg/Kg, read-out: F (bioavailability, fraction absorbed)): 3%
- Soluble ([2]; 50:45:5 Tetrahydrofuran:Acetone:Water): Yes
- solubility ([2]; 50:45:5 tetrahydrofuran:acetone:water): 10000 µg/mL (≈ 22.6 mM)
- Soluble ([2]; 50:50 Acetone:Methanol): No
- Soluble ([2]; 50:50 Methylene Chloride:Methanol): No
- solubility ([2]; 50:50 acetone:methanol): < 2500 µg/mL
- solubility ([2]; 50:50 methylene chloride:methanol): < 2500 µg/mL
- Soluble ([2]; 85:10:5 Tetrahydrofuran:Ethanol:Water): Yes
- solubility ([2]; 85:10:5 tetrahydrofuran:ethanol:water): 10000 µg/mL (≈ 22.6 mM)
- Soluble ([2]; 95:5 Tetrahydrofuran:Water): Yes
- solubility ([2]; 95:5 tetrahydrofuran:water): 10000 µg/mL (≈ 22.6 mM)
- solubilization by solvents utilized in the prior art ([2]; majority of solvents, in words): did not solubilize Compound 1 to an adequate level
- AUC(0-inf) ([3]; IV, 3 mg/kg): 43600 ng·h/mL
- AUC(0-t) ([3]; IV, 3 mg/kg): 43600 ng·h/mL
- Cmax ([3]; IV, 3 mg/kg): 49600 ng/mL
- Tmax ([3]; IV, 3 mg/kg): 0.083 h
- half-life ([3]; IV, 3 mg/kg): 2.58 h
- AUC(0-inf) ([3]; IV, 10 mg/kg): 100000 ng·h/mL
- AUC(0-t) ([3]; IV, 10 mg/kg): 100000 ng·h/mL
- Cmax ([3]; IV, 10 mg/kg): 91200 ng/mL
- Tmax ([3]; IV, 10 mg/kg): 0.083 h
- half-life ([3]; IV, 10 mg/kg): 2.98 h
- AUC(0-inf) ([3]; IV, 30 mg/kg): 214000 ng·h/mL
- AUC(0-t) ([3]; IV, 30 mg/kg): 213000 ng·h/mL
- Cmax ([3]; IV, 30 mg/kg): 180000 ng/mL
- Tmax ([3]; IV, 30 mg/kg): 0.083 h
- half-life ([3]; IV, 30 mg/kg): 2.56 h
- AUC(0-inf) ([3]; oral suspension, 3 mg/kg): 237 ng·h/mL
- AUC(0-t) ([3]; oral suspension, 3 mg/kg): 203 ng·h/mL
- Cmax ([3]; oral suspension, 3 mg/kg): 30 ng/mL
- Tmax ([3]; oral suspension, 3 mg/kg): 4 h
- half-life ([3]; oral suspension, 3 mg/kg): 1.82 h
- AUC(0-inf) ([3]; oral suspension, 10 mg/kg): 478 ng·h/mL
- AUC(0-t) ([3]; oral suspension, 10 mg/kg): 399 ng·h/mL
- Cmax ([3]; oral suspension, 10 mg/kg): 71.3 ng/mL
- Tmax ([3]; oral suspension, 10 mg/kg): 2.67 h
- half-life ([3]; oral suspension, 10 mg/kg): 3.41 h
- AUC(0-inf) ([3]; oral suspension, 30 mg/kg): 768 ng·h/mL
- AUC(0-t) ([3]; oral suspension, 30 mg/kg): 737 ng·h/mL
- Cmax ([3]; oral suspension, 30 mg/kg): 142 ng/mL
- Tmax ([3]; oral suspension, 30 mg/kg): 2.67 h
- half-life ([3]; oral suspension, 30 mg/kg): 2.46 h
- bioavailability ([3]; suspension dosing, read-out: Bioavailability): < 0.5%
- bioavailability ([3]; suspension in 0.5% methylcellulose, read-out: oral bioavailability): < 5%
- bioavailability [4]: < 5%
- 12-LOX inhibitory potency (12-LOX): highly potent

SMILES: COc1cccc(CNc2ccc(S(=O)(=O)Nc3nc4ccccc4o3)cc2)c1O [Compound 2, N-(benzo[d]oxazol-2-yl)-4-((2-hydroxy-3-methoxybenzyl)amino)benzenesulfonamide]
- solubility in water (Aqueous solubility): poor solubility in water
- 12-LOX inhibitor selectivity (12-LOX): selective
- 12-LOX inhibitory potency (12-LOX): highly potent

SMILES: COc1cccc(CNc2ccc(S(=O)(=O)Nc3cccc(C(C)C)c3)cc2)c1O [Compound 3, 4-((2-hydroxy-3-methoxybenzyl)amino)-N-(3-isopropylphenyl)benzenesulfonamide]
- solubility in water (Aqueous solubility): poor solubility in water
- 12-LOX inhibitor selectivity (12-LOX): selective
- 12-LOX inhibitory potency (12-LOX): highly potent
